In patent publication US20260091020A1, “TREATMENT OF ACUTE CANNABINOID OVERDOSE” (Anebulo Pharmaceuticals, Inc., priority 2022, published 2026):
Like-named read-outs stand apart in the source and are kept apart here.

Legend:
[1] = Plasma PK of ANEB-001 and THC, 30 mg or 10 mg oral Compound 1 with 21 mg THC (Example 4); type: in vivo, human; conditions: for concentration at 0 h / concentration at 20 min / concentration at 40 min / concentration at 1 h / concentration at 2 h / concentration at 3 h / concentration at 4 h / concentration at 5 h / concentration at 24 h / AUC(0-t) / Cmax / Tmax: human, in vivo; for concentration at 0 h: 00H00M; for concentration at 20 min: 00H20M; for concentration at 40 min: 00H40M; for concentration at 1 h: 01H00M; for concentration at 2 h: 02H00M; for concentration at 3 h: 03H00M; for concentration at 4 h: 04H00M; for concentration at 5 h: 05H00M; for concentration at 24 h: 24H00M; for Tmax: read-out: THC plasma tmax, Median
Procedure: Following the general methods of Example 2, the study design was adjusted such that groups received either (a) THC (21 mg)+placebo or (b) THC (21 mg)+Compound 1 (30 mg) (FIG. 14) or either (a) THC (21 mg)+placebo or (b) THC (21 mg)+Compound 1 (10 mg) (FIG. 15). […] Summary of pharmacokinetics of THC with 30 mg ANEB-001 challenge (FIG. 18A and FIG. 18B), AUC after 5 hours (FIG. 18C), AUC last (FIG. 18D) and Cmax (FIG. 18E).
Summary of pharmacokinetics for 30 mg ANEB-001 and 10 mg ANEB-001 challenge with 21 mg THC administration in plasma (FIGS. 19A and 19B); AUC after 5 hours for 10 mg ANEB-001 and 30 mg ANEB-001 (FIG. 19C), AUC last (FIG. 19D), and Cmax (FIG. 19E).
All PK parameter calculations were based on actual sampling time. For calculation of PK parameters, all BLQ concentrations that were between the first and last non-BLQ values were dropped (treated as ‘missing’). For calculation of AUClast and t1/2, additionally all values that were BLQ after the last non-BLQ value were dropped (treated as missing). If data points for concentrations were missing, the AUC parameters were derived by interpolating with regard to the 2 neighboring non-missing concentrations. AUC was calculated using the log-linear trapezoidal rule.
Reporting of drug concentration data. The concentrations are summarized (mean, SD, % CV, median, Min and Max values) by treatment and time, and are also presented graphically as mean over time, with standard deviation as error bars. For graphical and summary purposes of drug concentrations, values below the limit of quantification (BLQ) are set to zero. The SD and CVT are not reported if the mean is 0.
Reporting of PK parameters. The individual PK parameters (except tmax and tlag) are summarized (mean, SD, CV, geometric mean, geometric CV, median, M in and Max) per treatment group and a selection of the PK parameters are presented graphically as boxplots. For tmax and tlag, the median, Min and Max statistics are reported. Boxplots present the median (horizontal solid line), the 25%-75% distribution (IQR), with 1.5× the IQR as whiskers.

[2] = system: central nervous system effects of THC; experiment: Phase 2 randomized, double-blind, placebo-controlled THC challenge study, PD endpoints (10.5 mg THC + 50 or 100 mg Compound 1); type: in vivo, human; conditions: 10.5 mg THC alone (THC/placebo); score of at least 20/100 on VAS feeling high scale
[3] = 21 mg THC + 30 mg ANEB-001, read-out: THC in Plasma (concentration), Mean
[4] = 21 mg THC + 30 mg ANEB-001, read-out: THC in Plasma (concentration), Median
[5] = 21 mg, 21 mg THC + Placebo, read-out: THC in Plasma (concentration), Mean
[6] = 21 mg, 21 mg THC + Placebo, read-out: THC in Plasma (concentration), Median

**Q.** For CCCCCc1cc(O)c2c(c1)OC(C)(C)[C@@H]1CCC(C)=C[C@@H]21 [THC, Δ9-tetrahydrocannabinol], which “THC Dose normalized Cmax, GeoMean” value ([1]; 21 mg THC + 30 mg ANEB-001) is on record?
**A.** The value was 0.4482 ng/mL/mg.

**Q.** What about the “THC Dose normalized Cmax, Mean” value ([1]; 21 mg THC + 30 mg ANEB-001) of the same molecule?
**A.** The value was 0.4658 ng/mL/mg.

**Q.** And the “THC Dose normalized Cmax, Median” value ([1]; 21 mg THC + 30 mg ANEB-001)?
**A.** The value was 0.442 ng/mL/mg.

**Q.** And the “THC plasma tlag, Median” value ([1]; 21 mg THC + 30 mg ANEB-001)?
**A.** The value was 0 h.

**Q.** What about the “THC Dose normalized Cmax, GeoMean” value ([1]; 21 mg THC + Placebo) of the same molecule?
**A.** The value was 0.2634 ng/mL/mg.

**Q.** And the “THC Dose normalized Cmax, Mean” value ([1]; 21 mg THC + Placebo)?
**A.** Its value is 0.2965 ng/mL/mg.

**Q.** And the “THC Dose normalized Cmax, Median” value ([1]; 21 mg THC + Placebo)?
**A.** The value was 0.260 ng/mL/mg.

**Q.** And the “THC plasma AUC5H, Mean” value ([1]; 21 mg THC + Placebo)?
**A.** Its value is 14.6 ng·h/mL.

**Q.** What about the “THC plasma tlag, Median” value ([1]; 21 mg THC + Placebo) of the same molecule?
**A.** The value was 0 h.

**Q.** What about the concentration at 0 h [1, 3] of the same molecule?
**A.** The concentration at 0 h was 0.0163 ng/mL.

**Q.** And the concentration at 0 h [1, 4]?
**A.** Its concentration at 0 h is 0 ng/mL.

**Q.** What about the concentration at 20 min [1, 3] of the same molecule?
**A.** Its concentration at 20 min is 4.16 ng/mL.

**Q.** What about the concentration at 20 min [1, 4] of the same molecule?
**A.** The concentration at 20 min was 3.48 ng/mL.

**Q.** What about the concentration at 40 min [1, 3] of the same molecule?
**A.** Its concentration at 40 min is 8.94 ng/mL.

**Q.** And the concentration at 40 min [1, 4]?
**A.** The concentration at 40 min was 8.4 ng/mL.

**Q.** And the concentration at 1 h [1, 3]?
**A.** Its concentration at 1 h is 7.45 ng/mL.

**Q.** And the concentration at 1 h [1, 4]?
**A.** Its concentration at 1 h is 7.31 ng/mL.

**Q.** What about the concentration at 2 h [1, 3] of the same molecule?
**A.** Its concentration at 2 h is 4.07 ng/mL.

**Q.** What about the concentration at 2 h [1, 4] of the same molecule?
**A.** Its concentration at 2 h is 4.01 ng/mL.

**Q.** What about the concentration at 3 h [1, 3] of the same molecule?
**A.** The concentration at 3 h was 2.46 ng/mL.

**Q.** And the concentration at 3 h [1, 4]?
**A.** Its concentration at 3 h is 2.03 ng/mL.

**Q.** And the concentration at 4 h [1, 3]?
**A.** Its concentration at 4 h is 1.22 ng/mL.

**Q.** And the concentration at 4 h [1, 4]?
**A.** Its concentration at 4 h is 1.28 ng/mL.

**Q.** And the concentration at 5 h [1, 3]?
**A.** Its concentration at 5 h is 0.744 ng/mL.

**Q.** What about the concentration at 5 h [1, 4] of the same molecule?
**A.** The concentration at 5 h was 0.684 ng/mL.

**Q.** What about the concentration at 24 h [1, 3] of the same molecule?
**A.** Its concentration at 24 h is 0.0551 ng/mL.

**Q.** What about the concentration at 24 h [1, 4] of the same molecule?
**A.** The concentration at 24 h was 0 ng/mL.

**Q.** And the AUC(0-t) ([1]; 21 mg THC + 30 mg ANEB-001, read-out: THC plasma AUC5H, GeoMean)?
**A.** The AUC(0-t) was 16.3 ng·h/mL.

**Q.** And the AUC(0-t) ([1]; 21 mg THC + 30 mg ANEB-001, read-out: THC plasma AUC5H, Mean)?
**A.** The AUC(0-t) was 17 ng·h/mL.

**Q.** And the AUC(0-t) ([1]; 21 mg THC + 30 mg ANEB-001, read-out: THC plasma AUC5H, Median)?
**A.** The AUC(0-t) was 16.1 ng·h/mL.

**Q.** And the AUC(0-t) ([1]; 21 mg THC + 30 mg ANEB-001, read-out: THC plasma AUClast, GeoMean)?
**A.** Its AUC(0-t) is 17.9 ng·h/mL.

**Q.** What about the AUC(0-t) ([1]; 21 mg THC + 30 mg ANEB-001, read-out: THC plasma AUClast, Mean) of the same molecule?
**A.** Its AUC(0-t) is 19.3 ng·h/mL.

**Q.** And the AUC(0-t) ([1]; 21 mg THC + 30 mg ANEB-001, read-out: THC plasma AUClast, Median)?
**A.** The AUC(0-t) was 18.4 ng·h/mL.

**Q.** What about the Cmax ([1]; 21 mg THC + 30 mg ANEB-001, read-out: THC plasma Cmax, GeoMean) of the same molecule?
**A.** Its Cmax is 9.41 ng/mL.

**Q.** And the Cmax ([1]; 21 mg THC + 30 mg ANEB-001, read-out: THC plasma Cmax, Mean)?
**A.** Its Cmax is 9.78 ng/mL.

**Q.** What about the Cmax ([1]; 21 mg THC + 30 mg ANEB-001, read-out: THC plasma Cmax, Median) of the same molecule?
**A.** Its Cmax is 9.28 ng/mL.

**Q.** What about the Tmax ([1]; 21 mg THC + 30 mg ANEB-001) of the same molecule?
**A.** The Tmax was 40.2 min.

**Q.** What about the concentration at 0 h [1, 5] of the same molecule?
**A.** The concentration at 0 h was 0 ng/mL.

**Q.** What about the concentration at 0 h [1, 6] of the same molecule?
**A.** The concentration at 0 h was 0 ng/mL.

**Q.** And the concentration at 20 min [1, 5]?
**A.** The concentration at 20 min was 2.22 ng/mL.

**Q.** What about the concentration at 20 min [1, 6] of the same molecule?
**A.** The concentration at 20 min was 2.01 ng/mL.

**Q.** And the concentration at 40 min [1, 5]?
**A.** The concentration at 40 min was 6.1 ng/mL.

**Q.** And the concentration at 40 min [1, 6]?
**A.** The concentration at 40 min was 5.46 ng/mL.

**Q.** What about the concentration at 1 h [1, 5] of the same molecule?
**A.** Its concentration at 1 h is 5.78 ng/mL.

**Q.** What about the concentration at 1 h [1, 6] of the same molecule?
**A.** The concentration at 1 h was 5.47 ng/mL.

**Q.** And the concentration at 2 h [1, 5]?
**A.** Its concentration at 2 h is 2.85 ng/mL.

**Q.** What about the concentration at 2 h [1, 6] of the same molecule?
**A.** Its concentration at 2 h is 1.86 ng/mL.

**Q.** And the concentration at 3 h [1, 5]?
**A.** The concentration at 3 h was 3.23 ng/mL.

**Q.** And the concentration at 3 h [1, 6]?
**A.** Its concentration at 3 h is 1.47 ng/mL.

**Q.** What about the concentration at 4 h [1, 5] of the same molecule?
**A.** Its concentration at 4 h is 1.66 ng/mL.

**Q.** What about the concentration at 4 h [1, 6] of the same molecule?
**A.** Its concentration at 4 h is 0.894 ng/mL.

**Q.** And the concentration at 5 h [1, 5]?
**A.** Its concentration at 5 h is 1.06 ng/mL.

**Q.** And the concentration at 5 h [1, 6]?
**A.** The concentration at 5 h was 0.456 ng/mL.

**Q.** And the concentration at 24 h [1, 5]?
**A.** The concentration at 24 h was 0.0206 ng/mL.

**Q.** And the concentration at 24 h [1, 6]?
**A.** Its concentration at 24 h is 0 ng/mL.

**Q.** And the AUC(0-t) ([1]; 21 mg, 21 mg THC + Placebo, read-out: THC plasma AUC5H, GeoMean)?
**A.** The AUC(0-t) was 12 ng·h/mL.

**Q.** And the AUC(0-t) ([1]; 21 mg, 21 mg THC + Placebo, read-out: THC plasma AUC5H, Median)?
**A.** The AUC(0-t) was 9.32 ng·h/mL.

**Q.** And the AUC(0-t) ([1]; 21 mg, 21 mg THC + Placebo, read-out: THC plasma AUClast, GeoMean)?
**A.** The AUC(0-t) was 13 ng·h/mL.

**Q.** And the AUC(0-t) ([1]; 21 mg, 21 mg THC + Placebo, read-out: THC plasma AUClast, Mean)?
**A.** The AUC(0-t) was 18.3 ng·h/mL.

**Q.** What about the AUC(0-t) ([1]; 21 mg, 21 mg THC + Placebo, read-out: THC plasma AUClast, Median) of the same molecule?
**A.** Its AUC(0-t) is 9.32 ng·h/mL.

**Q.** And the Cmax ([1]; 21 mg, 21 mg THC + Placebo, read-out: THC plasma Cmax, GeoMean)?
**A.** The Cmax was 5.53 ng/mL.

**Q.** What about the Cmax ([1]; 21 mg, 21 mg THC + Placebo, read-out: THC plasma Cmax, Mean) of the same molecule?
**A.** Its Cmax is 6.23 ng/mL.

**Q.** And the Cmax ([1]; 21 mg, 21 mg THC + Placebo, read-out: THC plasma Cmax, Median)?
**A.** Its Cmax is 5.47 ng/mL.

**Q.** What about the Tmax ([1]; 21 mg THC + Placebo) of the same molecule?
**A.** Its Tmax is 40.2 min.

**Q.** And the “Proportion of subjects reporting feeling high” value [2]?
**A.** The value was 75%.
